Test results from publication PMC5247395 (EJNMMI Research, 2017).

Experiments:
[1] = n-octanol/PBS distribution coefficient (shake-flask); type: physicochemical; conditions: n-octanol/PBS pH 7.4, shake-flask
Description: The distribution coefficients (logD values) of the radioligands were determined by a shake-flask method using liquid-liquid extraction followed by phase separation, as previously reported (Additional file 1). In brief, the PSMA ligands were labeled at a specific activity of 5 MBq/nmol. […] The vials were vortexed vigorously for 1 min and then centrifuged for 6 min for phase separation. The concentration of radioactivity in a defined volume of each layer was measured in a γ-counter (Perkin Elmer, Wallac Wizard 1480). The distribution coefficients were expressed as the logarithm of the ratio of counts per minute (cpm) measured in the n-octanol phase to the cpm measure in the PBS phase. The values are reported as the average of at least three independent measurements (± standard deviation, SD), each performed with five replicates. Data were analyzed for significance using a one-way ANOVA test (GraphPad Prism software, version 7). A p value of <0.05 was considered as statistically significant.

[2] = system: PC-3 PIP/flu tumor-bearing mice; assay: PET/CT and SPECT/CT imaging of PC-3 PIP/flu tumor-bearing mice; type: in vivo; conditions: 2 h after injection
Description: PET/CT scans were performed using a small-animal bench-top PET/CT scanner (G8, Sofie Biosciences, Culver City, California, USA, and Perkin Elmer, Massachusetts, USA) and a small-animal SPECT/CT scanner (NanoSPECT/CT^TM, Mediso Medical Imaging Systems, Budapest, Hungary), respectively (Additional file 1). During the scans, the mice were anesthetized with a mixture of isoflurane and oxygen.
The PET scans were followed by a CT of 1.5 min. The SPECT scan of 45 min duration was performed 2 h after injection of ^177Lu-PSMA-617 (~50 MBq, 1 nmol) followed by a CT of 7.5 min. Reconstruction of the acquired data was performed by using the software of the respective scanner.
All images were prepared using VivoQuant post-processing software (version 2.10, inviCRO Imaging Services and Software, Boston USA). A Gauss post-reconstruction filter (full width at half maximum = 1 mm) was applied to the images, which were presented with the scale adjusted to allow visualization of the most important organs and tissues, usually by cutting 0.5–1% of the lower scale.
PET/CT scans were performed with a small-animal bench-top PET/CT scanner (G8, Sofie Biosciences, Culver City, California, U.S. and Perkin Elmer, Massachusetts, U.S.). The energy window ranged from 150 keV to 650 keV. […]

PSMA = molecular target: T1, PSMA (Homo sapiens, UniProt Q04609); assay: Saturation binding assay on PC-3 PIP cells (PSMA affinity, KD)
T1 construct: expressed in transfected cells; host or cells: PC-3 PIP cells (PSMA-positive subline of human PC-3 prostate cancer cells), provided by Prof; Martin Pomper, Johns Hopkins
Description: Determination of the PSMA affinity was performed by saturation binding assays using PC-3 PIP cells and different concentrations of ^nat/44Sc-, ^nat/177Lu-, ^nat/68Ga-PSMA-617, or ^nat/68Ga-PSMA-11, respectively (Additional file 1).
Determination of the KD values was performed by saturation binding assays using PSMA^pos PC-3 PIP cells. After successful radiolabeling of the PSMA ligands, a 2.5-fold molar excess of the corresponding cold metal was added and the reaction mixture was incubated for another 10 min at 95 °C. Quality control was performed again after reaction of the radioligands with the “cold” metal as described in the main manuscript.
The cells were seeded in 48-well-plates (8 x 10^5 cells in 500 uL RPMI medium/well) allowing adhesion and growth overnight at 37 °C and 5% CO2. For the entire experiment, the well-plates were kept on ice. After removal of the supernatant, the cells were washed once with ice-cold PBS pH 7.4 prior to the addition of different concentrations (1 nM-2 µM) of either ^nat/44Sc-, ^nat/177Lu-, ^nat/67/68Ga-PSMA-617 or ^nat/67/68Ga-PSMA-11 in ice-cold RPMI medium without supplements. For the determination of non-specific binding, cell samples were incubated with 2-phosphonomethyl pentanedioic acid (2-PMPA, 200 μM). The well-plates were incubated for 30 min at 4 °C. Then, the supernatants were removed and the cells washed twice with ice-cold PBS followed by addition of NaOH (1 M, 600 µL) to each well. The cell suspensions were transferred to 4 mL tubes for measurement in a γ-counter (Wallac Wizard 1480, Perkin Elmer). The KD values were determined by plotting specific-binding (total binding minus unspecific binding) against the molar concentration of the added radioligands followed by nonlinear regression analysis using GraphPad Prism 7 software.

[3] = system: PC-3 PIP/flu tumor-bearing mice; assay: Biodistribution in PC-3 PIP/flu tumor-bearing mice; conditions: i.v.; for PC-3 flu Tumor: PSMA^neg xenograft; for PC-3 PIP Tumor: PSMA^pos xenograft
Description: In vivo experiments were approved by the local veterinarian department and conducted in accordance with the Swiss law of animal protection. All mice were obtained from Charles River Laboratories (Sulzfeld, Germany), at the age of 5–6 weeks. Female, athymic nude Balb/c mice were subcutaneously inoculated with PC-3 PIP cells (6 × 10^6 cells in 100 μL Hank’s balanced salt solution (HBSS) with Ca^2+/Mg^2+) on the right shoulder and with PC-3 flu cells (5 × 10^6 cells in 100 μL HBSS with Ca^2+/Mg^2+) on the left shoulder 2 weeks before the performance of the experiments.
Mice were sacrificed at different time points post injection (p.i.) of the radioligands. Selected tissues and organs were collected, weighed and measured using a γ-counter. The results were decay-corrected and listed as a percentage of the injected activity per gram of tissue mass (% IA/g).

T1 sequence (Q04609 whole entry): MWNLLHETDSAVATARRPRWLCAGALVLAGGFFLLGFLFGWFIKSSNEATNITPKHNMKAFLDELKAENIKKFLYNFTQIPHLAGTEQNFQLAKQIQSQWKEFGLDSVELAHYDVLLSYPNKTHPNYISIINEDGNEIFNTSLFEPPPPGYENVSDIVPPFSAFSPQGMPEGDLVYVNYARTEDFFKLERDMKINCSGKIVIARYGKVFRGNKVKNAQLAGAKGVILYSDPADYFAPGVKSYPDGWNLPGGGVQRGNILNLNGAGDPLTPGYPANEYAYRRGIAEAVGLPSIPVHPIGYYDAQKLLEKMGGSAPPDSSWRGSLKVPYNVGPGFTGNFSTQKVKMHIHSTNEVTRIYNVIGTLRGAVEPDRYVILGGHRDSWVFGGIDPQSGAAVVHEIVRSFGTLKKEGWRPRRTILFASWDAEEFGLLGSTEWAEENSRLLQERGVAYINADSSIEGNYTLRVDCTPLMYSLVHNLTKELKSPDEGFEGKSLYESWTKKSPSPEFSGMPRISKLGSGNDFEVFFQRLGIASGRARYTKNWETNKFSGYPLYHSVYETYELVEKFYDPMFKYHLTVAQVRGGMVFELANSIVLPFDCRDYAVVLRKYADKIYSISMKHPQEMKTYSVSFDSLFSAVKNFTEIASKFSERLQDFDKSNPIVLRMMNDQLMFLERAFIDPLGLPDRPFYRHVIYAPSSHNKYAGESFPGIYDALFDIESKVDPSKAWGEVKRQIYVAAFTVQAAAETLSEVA

For `O=C([O-])CN(CCN(CC(=O)[O-])Cc1cc(CCC(=O)NCCCCCC(=O)NCCCC[C@H](NC(=O)N[C@@H](CCC(=O)O)C(=O)O)C(=O)O)ccc1[O-])Cc1cc(CCC(=O)O)ccc1[O-].[68Ga+3]` [^68Ga-PSMA-11], the LogD values [1] was −4.82 ± 0.07, the “accumulation in the kidneys on PET/CT images vs. the other radioligands” value [2] was “significantly higher extent” and the Kd (PSMA; 30 min at 4 °C, saturation binding) was 87 ± 27 nM. For the same molecule, the “Relative PSMA-binding affinity” value (PSMA; inverse molar ratio of average KD values, ^177Lu-PSMA-617 set to 1) was 0.4, the Blood ([3]; 15 min p.i.) was 5.05 ± 0.58 % IA/g and the Bone ([3]; 15 min p.i.) was 1.85 ± 0.20 % IA/g. The Heart ([3]; 15 min p.i.) was 2.45 ± 0.29 % IA/g, the Intestines ([3]; 15 min p.i.) was 1.42 ± 0.07 % IA/g and the Kidneys ([3]; 15 min p.i.) was 74.7 ± 7.02 % IA/g. It also gave a Liver ([3]; 15 min p.i.) of 2.00 ± 0.32 % IA/g, a Lung ([3]; 15 min p.i.) of 3.87 ± 0.22 % IA/g and a Muscle ([3]; 15 min p.i.) of 1.21 ± 0.11 % IA/g. For the same molecule, the Salivary glands ([3]; 15 min p.i.) was 2.73 ± 0.27 % IA/g, the Spleen ([3]; 15 min p.i.) was 5.33 ± 1.78 % IA/g and the Stomach ([3]; 15 min p.i.) was 1.42 ± 0.15 % IA/g. For the same molecule, the “PC-3 flu Tumor” value ([3]; 15 min p.i.) was 2.19 ± 0.05 % IA/g, the “PC-3 PIP Tumor” value ([3]; 15 min p.i.) was 31.5 ± 13.0 % IA/g and the Blood ([3]; 30 min p.i.) was 2.55 ± 0.72 % IA/g. The Bone ([3]; 30 min p.i.) was 0.81 ± 0.14 % IA/g, the Heart ([3]; 30 min p.i.) was 1.31 ± 0.19 % IA/g and the Intestines ([3]; 30 min p.i.) was 1.20 ± 0.24 % IA/g. It also gave a Kidneys ([3]; 30 min p.i.) of 86.7 ± 14.6 % IA/g, a Liver ([3]; 30 min p.i.) of 1.55 ± 0.04 % IA/g and a Lung ([3]; 30 min p.i.) of 2.23 ± 0.33 % IA/g. It also gave a Muscle ([3]; 30 min p.i.) of 0.67 ± 0.06 % IA/g, a Salivary glands ([3]; 30 min p.i.) of 1.59 ± 0.18 % IA/g and a Spleen ([3]; 30 min p.i.) of 4.76 ± 1.13 % IA/g. The Stomach ([3]; 30 min p.i.) was 0.85 ± 0.19 % IA/g, the “PC-3 flu Tumor” value ([3]; 30 min p.i.) was 1.04 ± 0.17 % IA/g and the “PC-3 PIP Tumor” value ([3]; 30 min p.i.) was 49.3 ± 4.97 % IA/g. It also gave a Blood ([3]; 2 h p.i.) of 0.08 ± 0.01 % IA/g, a Bone ([3]; 2 h p.i.) of 0.06 ± 0.00 % IA/g and a Heart ([3]; 2 h p.i.) of 0.18 ± 0.03 % IA/g. The Intestines ([3]; 2 h p.i.) was 0.95 ± 0.86 % IA/g, the Kidneys ([3]; 2 h p.i.) was 58.8 ± 7.62 % IA/g and the Liver ([3]; 2 h p.i.) was 0.56 ± 0.04 % IA/g. For the same molecule, the Lung ([3]; 2 h p.i.) was 0.31 ± 0.10 % IA/g, the Muscle ([3]; 2 h p.i.) was 0.06 ± 0.01 % IA/g and the Salivary glands ([3]; 2 h p.i.) was 0.39 ± 0.01 % IA/g. For the same molecule, the Spleen ([3]; 2 h p.i.) was 2.18 ± 0.38 % IA/g, the Stomach ([3]; 2 h p.i.) was 0.35 ± 0.17 % IA/g and the “PC-3 flu Tumor” value ([3]; 2 h p.i.) was 0.13 ± 0.02 % IA/g. The “PC-3 PIP Tumor” value ([3]; 2 h p.i.) was 40.0 ± 2.55 % IA/g.
